Blank lines part the entries; values can stand above or below the compound they belong to.
Assays:
[1] = system: A431 tumor; test: Diagnosis of apoptosis in target tissue (TUNEL and activated caspase 3 staining of tumor sections); format: in vivo, mouse (Balb/c-Ajcl-nu/nu); conditions: MMC 5 mg/6.25 mL/kg via tail vein, one, 3 and 5 days before the RI-labeled product
Excerpt: Male Balb/c-Ajcl-nu/nu mice of 5 to 6 weeks old (CLEA Japan, Inc.) were provided, and divided into two groups (the MMC administration group and the vehicle group; 3 individuals per group). A431 cells were inoculated into the left femoral region of each mouse, 2 to 3 weeks before the PET experiment for the MMC administration group, or 10 days to 2 weeks before the PET experiment for the vehicle group. Individuals of which the tumor size became […] on the day before the administration of the RI-labeled product were subjected to the PET experiment. One day, 3 days, and 5 days before the administration of the RI-labeled product, MMC (mitomycin C) was administered via the tail vein at an amount of 5 mg/6.25 mL/kg for the MMC administration group, and physiological saline was administered at amount of 6.25 mL/kg for the vehicle group.
After the completion of the PET experiment, the tumor was isolated from each mouse, and frozen sections were prepared. The prepared frozen sections were fixed with cold methanol, and stored at −20° C. until use. The sections were used for the experiment within 3 to 5 days after the dissection.
The frozen sections were subjected to blocking using Protein Block, Serum-Free (Dako), and then subjected to TUNEL staining using DeadEnd Fluorometric TUNEL System (Promega). […]

[2] = target: T1, human Tim4 IgG Fc fusion protein, modified type hTim4-184-Fc (55 mucin domain residues), SEQ ID NO: 61 (Homo sapiens, UniProt Q96H15); test: ELISA, binding capacity of hTim4-184-Fc to PS; conditions: n = 2
T1 construct: made in house; host or cells: Freestyle 293F cells
Excerpt: (§1) Using the primers shown in Table 4 and PrimeSTAR Mutagenesis Basal Kit (Takara Bio Inc.), vectors encoding fusion proteins having mucin domains with various lengths, in which the C-terminus and/or the N-terminus of the wild-type mucin domain was/were deleted. More specifically, phTim4-Fc was used as a template to prepare phTim4-240-Fc and phTim4-187-Fc; the obtained phTim4-187-Fc was used as a template to prepare phTim4-184-Fc, phTim4-181-Fc, phTim4-178-Fc, phTim4-175-Fc, phTim4-162-Fc, phTim4-149-Fc, phTim4-135-Fc, phTim4-130-Fc and phTim4-Δ131-187-Fc; the obtained phTim4-240-Fc was used as a template to prepare phTim4-Δ131-240-Fc; and the obtained phTim4-Δ131-187-Fc was used as a template to prepare phTim4-Δ131-187Δ241-310-Fc. […]
(§2) The obtained vector of 37.5 μg was transfected into 30 mL of 1×10^6 cells/mL Freestyle 293F cells (Life technologies) using Freestyle MAX Reagent (Life technologies), and the cells were cultured with shaking at 37° C. under 8% CO2 for 4 days. […] The purified protein was subjected to SDS-PAGE, and the molecular weight under non-reducing conditions was calculated (Table 6). […]
(§3) Into a 96-well plate, 100 μL of PS (0.5 mg/mL) or a solvent (methanol) was placed, and dried. […] An HRP-conjugated anti-human IgG-Fc antibody was used as a secondary antibody, and the absorbance due to coloring with TMB was measured using a microplate reader. […]

[3] = target: T2, human Tim4 IgG Fc fusion protein, modified type hTim4-178-Fc (49 mucin domain residues), SEQ ID NO: 65 (Homo sapiens, UniProt Q96H15); test: ELISA, binding capacity of hTim4-178-Fc to PS; conditions: n = 2
T2 construct: made in house; host or cells: Freestyle 293F cells
Excerpt: as §1, §2, §3

[4] = target: T3, human Tim4 IgG Fc fusion protein, modified type hTim4-240-Fc, SEQ ID NO: 51 (Homo sapiens, UniProt Q96H15, V240A); test: Dot blotting, binding of hTim4-240-Fc to PS; conditions: 0.15 μg of PS spotted; fusion protein 0.5 μg/mL, 4° C. overnight
T3 construct: replaced N-terminal leader; Freestyle 293F, purified
Method: (§4) Dot blotting was carried out by the following procedure to evaluate the binding capacity of each fusion protein (hTim4-Fc) prepared as described above to PS. On a PVDF membrane (GE Healthcare) with a size of 10 mm×10 mm, 0.15 μg of PS was spotted, and the resulting membrane was incubated in 500 μL of a blocking buffer (5% skim milk—PBS-T) in a 24-well plate at room temperature for 1 hour, to perform blocking. To the blocking buffer in the well, each fusion protein was added at a final concentration of 0.5 μg/mL, and incubation was carried out at 4° C. overnight. A control was provided by use of only the blocking buffer. Thereafter, the PVDF membrane was washed 5 times with 2 mL of PBS-T, and incubated at room temperature for 2 hours in an HRP-conjugated anti-human IgG-Fc antibody (Bethyl) solution which was 10000-fold diluted with 500 μL of the blocking buffer. Subsequently, the membrane was washed 5 times with 2 mL of PBS-T, followed by chemiluminescence using ECL prime (GE healthcare) and detection using LAS 3000 (Fujifilm).

[5] = target: T4, human Tim4 IgG Fc fusion protein, modified type hTim4-Δ131-187Δ241-310-Fc (58 mucin domain residues), SEQ ID NO: 57 (Homo sapiens, UniProt Q96H15, DEL135-187/V240A); test: ELISA, binding capacity of hTim4-Δ131-187Δ241-310-Fc to PS; conditions: n = 2
T4 construct: made in house; host or cells: Freestyle 293F cells
Excerpt: as §1, §2, §3

[6] = target: T5, human Tim4 wild-type IgG Fc fusion protein hTim4-Fc (181 mucin domain residues), SEQ ID NO: 49 (Homo sapiens, UniProt Q96H15, D300G/G301W/M299D/Q298T/V240A); test: ELISA, binding capacity of hTim4-Fc to PS; conditions: n = 2
T5 construct: made in house; host or cells: Freestyle 293F cells
Method: Using a vector encoding the hTim4 sequence (pCMV6-XL5 Homo sapiens T-cell immunoglobulin and mucin domain containing 4, transcript variant 1 as transfection-ready DNA, OriGene Technologies) as a template, and a primer containing an EcoRV restriction site at 5′-end (SEQ ID NO:22) and a primer containing a BglII restriction site at 3′-end (SEQ ID NO:23), PCR was performed. The obtained PCR product and pFUSE-hIgG1e3-Fc2 (InvivoGen) encoding the human IgG-Fc region were each digested with EcoRV and BglII, and the resulting digestion products were ligated to each other. E. coli (JM109, Takara Bio Inc.) was transformed with the resulting ligation product, and colonies were obtained. From the obtained colonies, plasmids were extracted, and the DNA sequences of the plasmids were analyzed. A colony having the hTim4 sequence inserted therein was subjected to large-scale culture, to obtain a vector. […]
as §2

[7] = target: T6, human Tim4 IgG Fc fusion protein, modified type hTim4-Δ131-240-Fc (55 mucin domain residues), SEQ ID NO: 55 (Homo sapiens, UniProt Q96H15, DEL135-260); test: ELISA, binding capacity of hTim4-Δ131-240-Fc to PS; conditions: n = 2
T6 construct: made in house; host or cells: Freestyle 293F cells
Excerpt: as §1, §2, §3

[8] = target: T7, human Tim4 IgG Fc fusion protein, modified type hTim4-181-Fc (52 mucin domain residues), SEQ ID NO: 63 (Homo sapiens, UniProt Q96H15); test: ELISA, binding capacity of hTim4-181-Fc to PS; conditions: n = 2
T7 construct: made in house; host or cells: Freestyle 293F cells
Excerpt: as §1, §2, §3

[9] = target: T8, human Tim4 IgG Fc fusion protein, modified type hTim4-178-Fc, SEQ ID NO: 65 (Homo sapiens, UniProt Q96H15); test: Dot blotting, binding of hTim4-178-Fc to PS; conditions: 0.15 μg of PS spotted; fusion protein 0.5 μg/mL, 4° C. overnight
T8 construct: replaced N-terminal leader; Freestyle 293F, purified
Method: as §4

[10] = target: T9, human Tim4 IgG Fc fusion protein, modified type hTim4-187-Fc, SEQ ID NO: 59 (Homo sapiens, UniProt Q96H15); test: Dot blotting, binding specificity of hTim4-187-Fc to various phospholipids; conditions: PE, PC, PI and PS spotted, 1 μL of 100 pmol/μL each; fusion protein 0.5 μg/mL, room temperature 2 hours
T9 construct: replaced N-terminal leader; Freestyle 293F, purified
Method: Dot blotting was carried out by the following procedure to evaluate the binding capacity of the fusion protein of the present invention to various phospholipids.
On a PVDF membrane (GE Healthcare), 1 μL each of 100 pmol/μL 3-sn-phosphatidylethanolamine (PE), L-α-phosphatidylcholine (PC), L-α-phosphatidylinositol (PI), and 3-sn-phosphatidyl-L-serine (Sigma Aldrich) were spotted, and the resulting membrane was incubated in 2 mL of a blocking buffer (5% skim milk—PBS-T) at room temperature for 1 hour, to perform blocking. To the blocking buffer in each well, hTim4-187-Fc was added at a final concentration of 0.5 μg/mL, and incubation was carried out at room temperature for 2 hours. Thereafter, the PVDF membrane was washed 5 times with 5 mL of PBS-T, and incubated at room temperature for 2 hours in an HRP-conjugated anti-human IgG-Fc antibody (Bethyl) solution which was 10000-fold diluted with 2 mL of the blocking buffer. Subsequently, the membrane was washed 5 times with 5 mL of PBS-T, followed by chemiluminescence using ECL prime (GE healthcare) and detection using LAS 3000 (Fujifilm).

[11] = target: T10, human Tim4 IgG Fc fusion protein, modified type hTim4-175-Fc, SEQ ID NO: 67 (Homo sapiens, UniProt Q96H15); test: Dot blotting, binding of hTim4-175-Fc to PS; conditions: 0.15 μg of PS spotted; fusion protein 0.5 μg/mL, 4° C. overnight
T10 construct: replaced N-terminal leader; Freestyle 293F, purified
Method: as §4

[12] = target: T11, human Tim4 IgG Fc fusion protein, modified type hTim4-240-Fc (111 mucin domain residues), SEQ ID NO: 51 (Homo sapiens, UniProt Q96H15, V240A); test: ELISA, binding capacity of hTim4-240-Fc to PS; conditions: n = 2
T11 construct: made in house; host or cells: Freestyle 293F cells
Excerpt: as §1, §2, §3

[13] = target: T9, human Tim4 IgG Fc fusion protein, modified type hTim4-187-Fc, SEQ ID NO: 59; test: Dot blotting, binding of hTim4-187-Fc to PS; conditions: 0.15 μg of PS spotted; fusion protein 0.5 μg/mL, 4° C. overnight
Method: as §4

[14] = target: T12, human Tim4 IgG Fc fusion protein, modified type hTim4-184-Fc, SEQ ID NO: 61 (Homo sapiens, UniProt Q96H15); test: Dot blotting, binding of hTim4-184-Fc to PS; conditions: 0.15 μg of PS spotted; fusion protein 0.5 μg/mL, 4° C. overnight
T12 construct: replaced N-terminal leader; Freestyle 293F, purified
Method: as §4

[15] = target: T13, human Tim4 IgG Fc fusion protein, modified type hTim4-181-Fc, SEQ ID NO: 63 (Homo sapiens, UniProt Q96H15); test: Dot blotting, binding of hTim4-181-Fc to PS; conditions: 0.15 μg of PS spotted; fusion protein 0.5 μg/mL, 4° C. overnight
T13 construct: replaced N-terminal leader; Freestyle 293F, purified
Method: as §4

[16] = target: T14, human Tim4 IgG Fc fusion protein, modified type hTim4-175-Fc (46 mucin domain residues), SEQ ID NO: 67 (Homo sapiens, UniProt Q96H15); test: ELISA, binding capacity of hTim4-175-Fc to PS; conditions: n = 2
T14 construct: made in house; host or cells: Freestyle 293F cells
Excerpt: as §1, §2, §3

[17] = target: T15, human Tim4 IgG Fc fusion protein, modified type hTim4-187-Fc (58 mucin domain residues), SEQ ID NO: 59 (Homo sapiens, UniProt Q96H15); test: ELISA, binding capacity of hTim4-187-Fc to PS; conditions: n = 2
T15 construct: made in house; host or cells: Freestyle 293F cells
Excerpt: as §1, §2, §3

[18] = 10-fold dilution series of the fusion protein on PS-coated plate, read-out: EC50 ± SE (50% effective concentration)

T11 sequence (Q96H15 with tags, fused parts or gaps V240A): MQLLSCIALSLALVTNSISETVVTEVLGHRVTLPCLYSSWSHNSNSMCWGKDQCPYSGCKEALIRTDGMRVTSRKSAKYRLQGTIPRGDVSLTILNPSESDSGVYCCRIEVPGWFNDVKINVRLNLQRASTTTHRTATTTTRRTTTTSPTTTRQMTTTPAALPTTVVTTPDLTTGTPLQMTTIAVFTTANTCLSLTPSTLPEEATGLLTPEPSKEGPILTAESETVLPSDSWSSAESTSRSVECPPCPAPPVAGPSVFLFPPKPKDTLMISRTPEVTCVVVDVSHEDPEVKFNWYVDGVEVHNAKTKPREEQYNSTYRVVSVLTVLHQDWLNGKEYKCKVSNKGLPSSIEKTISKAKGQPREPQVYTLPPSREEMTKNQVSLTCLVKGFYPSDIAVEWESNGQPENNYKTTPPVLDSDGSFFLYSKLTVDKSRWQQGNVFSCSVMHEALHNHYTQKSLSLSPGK
T4 sequence (Q96H15 with tags, fused parts or gaps DEL135-187/V240A limits assumed): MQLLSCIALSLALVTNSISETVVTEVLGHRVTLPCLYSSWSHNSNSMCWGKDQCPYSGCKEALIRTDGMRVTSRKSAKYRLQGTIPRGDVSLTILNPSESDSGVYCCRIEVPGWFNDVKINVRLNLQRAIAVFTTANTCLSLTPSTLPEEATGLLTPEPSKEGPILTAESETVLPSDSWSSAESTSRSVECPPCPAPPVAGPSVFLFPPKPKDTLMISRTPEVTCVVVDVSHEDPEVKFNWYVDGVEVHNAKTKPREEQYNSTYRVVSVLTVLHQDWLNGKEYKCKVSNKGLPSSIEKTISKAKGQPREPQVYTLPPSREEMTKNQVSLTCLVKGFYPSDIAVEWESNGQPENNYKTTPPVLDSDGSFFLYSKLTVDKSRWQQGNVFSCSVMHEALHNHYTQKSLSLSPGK
T1 sequence (Q96H15 with tags, fused parts or gaps): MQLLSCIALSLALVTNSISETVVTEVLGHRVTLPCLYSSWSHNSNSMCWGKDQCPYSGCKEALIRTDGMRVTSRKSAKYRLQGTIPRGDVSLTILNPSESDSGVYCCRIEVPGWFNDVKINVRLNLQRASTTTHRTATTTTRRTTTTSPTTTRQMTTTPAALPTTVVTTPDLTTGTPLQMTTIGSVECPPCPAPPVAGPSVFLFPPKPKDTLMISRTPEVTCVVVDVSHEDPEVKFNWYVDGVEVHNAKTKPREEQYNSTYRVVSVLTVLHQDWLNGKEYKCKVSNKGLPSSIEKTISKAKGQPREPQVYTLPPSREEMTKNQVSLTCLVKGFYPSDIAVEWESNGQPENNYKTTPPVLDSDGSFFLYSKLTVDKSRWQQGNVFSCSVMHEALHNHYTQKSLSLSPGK
T7 sequence (Q96H15 with tags, fused parts or gaps): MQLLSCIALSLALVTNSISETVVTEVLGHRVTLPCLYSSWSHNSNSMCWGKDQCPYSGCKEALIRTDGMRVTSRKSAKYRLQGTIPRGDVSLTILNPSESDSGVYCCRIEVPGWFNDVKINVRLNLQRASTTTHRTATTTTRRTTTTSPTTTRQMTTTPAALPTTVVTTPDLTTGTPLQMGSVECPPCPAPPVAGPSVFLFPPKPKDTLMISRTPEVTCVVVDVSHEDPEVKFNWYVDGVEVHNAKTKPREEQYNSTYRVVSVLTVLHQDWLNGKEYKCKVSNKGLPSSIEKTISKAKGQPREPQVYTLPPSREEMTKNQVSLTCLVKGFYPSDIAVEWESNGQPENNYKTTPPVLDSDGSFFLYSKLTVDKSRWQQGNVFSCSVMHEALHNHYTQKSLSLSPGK
T2 sequence (Q96H15 with tags, fused parts or gaps): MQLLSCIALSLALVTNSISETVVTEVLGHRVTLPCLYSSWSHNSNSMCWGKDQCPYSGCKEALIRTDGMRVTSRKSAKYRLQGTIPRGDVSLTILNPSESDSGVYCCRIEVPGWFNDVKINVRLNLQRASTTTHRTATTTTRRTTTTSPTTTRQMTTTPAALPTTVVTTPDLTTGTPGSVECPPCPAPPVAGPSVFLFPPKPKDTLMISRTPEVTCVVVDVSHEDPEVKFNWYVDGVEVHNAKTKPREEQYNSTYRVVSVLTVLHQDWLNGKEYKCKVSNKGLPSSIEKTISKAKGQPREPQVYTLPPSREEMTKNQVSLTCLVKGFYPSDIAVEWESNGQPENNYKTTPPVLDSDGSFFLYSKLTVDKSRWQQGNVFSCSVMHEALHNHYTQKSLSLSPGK
T6 sequence (Q96H15 with tags, fused parts or gaps DEL135-260 limits assumed): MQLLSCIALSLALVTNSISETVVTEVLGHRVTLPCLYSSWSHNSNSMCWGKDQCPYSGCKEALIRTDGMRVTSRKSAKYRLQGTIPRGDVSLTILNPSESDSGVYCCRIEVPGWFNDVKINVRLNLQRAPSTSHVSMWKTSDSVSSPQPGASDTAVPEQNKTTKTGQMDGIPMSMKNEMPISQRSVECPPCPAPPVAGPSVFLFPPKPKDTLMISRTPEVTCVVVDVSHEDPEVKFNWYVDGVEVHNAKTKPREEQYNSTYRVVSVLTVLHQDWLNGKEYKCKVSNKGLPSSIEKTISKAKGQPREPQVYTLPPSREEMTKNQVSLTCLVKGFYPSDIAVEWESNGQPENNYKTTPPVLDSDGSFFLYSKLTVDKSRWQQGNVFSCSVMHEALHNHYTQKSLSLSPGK
T14 sequence (Q96H15 with tags, fused parts or gaps): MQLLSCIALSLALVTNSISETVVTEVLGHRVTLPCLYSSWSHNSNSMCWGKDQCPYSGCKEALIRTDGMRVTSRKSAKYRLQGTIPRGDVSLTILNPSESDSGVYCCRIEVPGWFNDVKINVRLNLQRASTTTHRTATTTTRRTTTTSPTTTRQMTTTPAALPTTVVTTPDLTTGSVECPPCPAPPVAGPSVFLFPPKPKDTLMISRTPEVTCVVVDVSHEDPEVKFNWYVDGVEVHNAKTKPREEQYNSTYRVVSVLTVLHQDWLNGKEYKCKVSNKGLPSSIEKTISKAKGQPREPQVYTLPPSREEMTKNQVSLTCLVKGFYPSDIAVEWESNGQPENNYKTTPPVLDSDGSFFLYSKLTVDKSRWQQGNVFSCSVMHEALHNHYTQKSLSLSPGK
T15 sequence (Q96H15 with tags, fused parts or gaps): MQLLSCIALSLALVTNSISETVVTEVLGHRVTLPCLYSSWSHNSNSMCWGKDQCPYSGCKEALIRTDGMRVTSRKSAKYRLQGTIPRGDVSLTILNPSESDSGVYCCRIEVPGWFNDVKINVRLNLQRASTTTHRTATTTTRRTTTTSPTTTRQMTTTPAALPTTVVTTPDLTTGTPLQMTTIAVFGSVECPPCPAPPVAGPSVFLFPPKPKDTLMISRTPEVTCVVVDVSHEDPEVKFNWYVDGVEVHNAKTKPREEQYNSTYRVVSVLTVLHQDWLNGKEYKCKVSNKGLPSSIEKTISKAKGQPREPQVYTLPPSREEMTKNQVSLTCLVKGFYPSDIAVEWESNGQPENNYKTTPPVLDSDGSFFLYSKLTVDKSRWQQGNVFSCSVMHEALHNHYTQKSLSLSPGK
T5 sequence (Q96H15 with tags, fused parts or gaps V240A/Q298T/M299D/D300G/G301W): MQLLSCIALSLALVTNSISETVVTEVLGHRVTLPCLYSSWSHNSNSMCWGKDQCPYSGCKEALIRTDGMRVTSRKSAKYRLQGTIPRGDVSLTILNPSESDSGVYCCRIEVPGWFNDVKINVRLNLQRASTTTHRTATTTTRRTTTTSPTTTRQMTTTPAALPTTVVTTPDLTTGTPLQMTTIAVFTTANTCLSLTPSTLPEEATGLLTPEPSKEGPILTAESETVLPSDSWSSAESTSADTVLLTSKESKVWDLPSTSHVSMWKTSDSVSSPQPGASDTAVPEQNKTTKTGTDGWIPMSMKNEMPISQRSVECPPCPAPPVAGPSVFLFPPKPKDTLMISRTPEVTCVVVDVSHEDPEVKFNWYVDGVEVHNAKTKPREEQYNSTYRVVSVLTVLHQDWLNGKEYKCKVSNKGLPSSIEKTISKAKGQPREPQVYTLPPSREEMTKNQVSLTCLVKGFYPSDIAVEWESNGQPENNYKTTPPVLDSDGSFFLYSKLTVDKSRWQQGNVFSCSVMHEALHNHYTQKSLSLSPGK
T3 sequence (Q96H15 with tags, fused parts or gaps V240A): as the sequence (Q96H15 with tags, fused parts or gaps V240A) above

Compound: CO[C@@]12[C@H](COC(N)=O)C3=C(C(=O)C(C)=C(N)C3=O)N1C[C@@H]1N[C@@H]12 [MMC, mitomycin C]
occurrence of apoptosis in the tumor [1]: occurrence of apoptosis in the tumor of the MMC-administered individuals was confirmed

EC50 [2, 18]: 100 ± 45.2 nM | Bmax ± SE (maximum binding amount) ([2]; PS-coated plate): 0.84 ± 0.17 Abs 450 nm | EC50 [3, 18]: 67 ± 54.8 nM | Bmax ± SE (maximum binding amount) ([3]; PS-coated plate): 0.63 ± 0.22 Abs 450 nm | binding to PS [4]: binding to PS was confirmed | EC50 [5, 18]: 132 ± 305 nM | Bmax ± SE (maximum binding amount) ([5]; PS-coated plate): 0.02 ± 0.03 Abs 450 nm | EC50 [6, 18]: 0.2 nM | Bmax ± SE (maximum binding amount) ([6]; PS-coated plate): 0.00 ± 0.00 Abs 450 nm | EC50 [7, 18]: 148 ± 85.8 nM | Bmax ± SE (maximum binding amount) ([7]; PS-coated plate): 0.07 ± 0.02 Abs 450 nm | EC50 [8, 18]: 47.5 ± 6.2 nM | Bmax ± SE (maximum binding amount) ([8]; PS-coated plate): 0.74 ± 0.04 Abs 450 nm | binding to PS [9]: binding to PS was confirmed | binding specificity to PS among phospholipids [10]: binds to only PS | binding to PS [11]: binding to PS was confirmed | EC50 [12, 18]: 7.1 ± 14.9 nM | Bmax ± SE (maximum binding amount) ([12]; PS-coated plate): 0.01 ± 0.01 Abs 450 nm | binding to PS [13]: binding to PS was confirmed | binding to PS [14]: binding to PS was confirmed | binding to PS [15]: binding to PS was confirmed | EC50 [16, 18]: 76.2 ± 19.5 nM | Bmax ± SE (maximum binding amount) ([16]; PS-coated plate): 0.77 ± 0.08 Abs 450 nm | EC50 [17, 18]: 62.8 ± 20.2 nM | Bmax ± SE (maximum binding amount) ([17]; PS-coated plate): 1.02 ± 0.14 Abs 450 nm
Compound: 3-sn-phosphatidyl-L-serine [PS]
